Reference: patent publication US9695225B2, “Peptide compound for treatment of severe hypoglycemia” (Eli Lilly and Company, priority 2013, dated 2017)
Where two headings read alike, the source gives them in different places. Non-standard residues stand in square brackets, D forms with d. Residues, ends and D or L forms follow the SMILES beside them. Aib = CC(C)(N)C(=O)O

Experiments:
[1] = assay type: physicochemical
Protocol: (§1) The compound of SEQ ID NO: 2 is dissolved in H2O to a 10 mg/mL concentration (peptide content), filtered through a 0.22 μm filter (Millex, SLGV004SL), and then diluted to 1 mg/mL in Buffer P5 (10 mM Histidine, 150 mM NaCl in H2O, pH 5.0) or Buffer P6 (10 mM Histidine, 150 mM NaCl in H2O, pH 6.0). Each solution is transferred to three vials and autoclaved. Samples are then maintained at 4° C., 30° C. and 40° C. Samples are visually assessed at different time points for turbidity and phase separation. Stability of the compound is assessed by analytical reverse phase HPLC (RP-HPLC) on a Phenomenex Aeris Widepore, 3.6 μm, XB-C18 4.6×100 mm column (P/NO 00D-4482-E0) heated at 60° C. with a AB (A=0.05% TFA/H2O; B=0.04% TFA/acetonitrile) gradient of 5% B isocratic over 5 min, 5 to 25% B over 20 minutes, 25 to 30% B over 30 min, and 30 to 45% B over 10 min with a flow rate of 1.2 mL/min (wavelength of 220 ηm).

[2] = Chemical stability by RP-HPLC (% main peak); assay type: physicochemical; conditions: for 4° C. % Main Peak / 30° C. % Main Peak / 40° C. % Main Peak: 4 weeks; for % Main Peak Day 0: RP-HPLC
Protocol: as §1
The compound of SEQ ID NO: 2 also maintains chemical stability at pH 5 (Buffer P5) and pH 6 (Buffer P6) when maintained at 4° C., 30° C. and 40° C. for 4 weeks.

[3] = Physical stability test using Thioflavin T binding assay (fibrillation); assay type: physicochemical; conditions: 25° C.; for Thioflavin T fluorescence t = 0 h / Thioflavin T fluorescence t = 40 h / Thioflavin T fluorescence t = 120 h: 1 mg/mL, 300 rpm
Protocol: Fibrillation is a common problem when glucagon is formulated in aqueous solution. To assess the level of fibrillation of the compound of the present invention, a Thioflavin T binding assay is performed.
All samples are mechanically stressed at 25° C. in a magnetic stir plate set at 300 rpm. […] Raw data is collected with Softmax Pro 5.4.1 (Molecular Devices) and imported to Excel.

C57/Bl6 male mice = test: Effects on blood glucose levels in C57/Bl6 male mice; assay type: in vivo; conditions: for Blood glucose levels: mean±SEM of 4 mice
Protocol: To determine the effects of the compound of SEQ ID NO: 2 on blood glucose levels, the compound is administered to C57/Bl6 mice. Three month old male C57BL6 mice (Harlan Laboratories) are used Animals are individually housed in a temperature-controlled (24° C.) facility with a 12 hour light/dark cycle, and have free access to food and water. After 1 week acclimation to the facility, mice are randomized to treatment groups (n=4/group). Test compound is formulated in Buffer 2 (see Physical stability test using Thioflavin T binding assay). On the morning of test, food is removed at 08:00 AM. Two hours after food is removed, the test compound is given subcutaneously at 0, 1, 3 or 10 μg/kg doses. Blood glucose is measured at time 0, 15, 30, 60 and 120 minutes after test compound administration with an ACCU-CHECK® (Roche Diagnostics) glucometer. […] Results are expressed as mean±standard error mean (SEM) of 4 mice per group.
Blood glucose levels at 10 μg/kg of compound of SEQ ID NO: 2 is taken as the maximum value.

[4] = Buffer 1 (20 mM Histidine, pH 6.0)
[5] = Buffer 2 (10 mM Histidine, 150 nM NaCl, pH 6.0)
[6] = Buffer 3 (10 mM Histidine, 300 mM sorbitol, pH 6.0)
[7] = Buffer 4 (10 mM Histidine, 0.02% Tween 80, pH 6.0)
[8] = Buffer 5 (10 mM Histidine, 300 mM Arginine, pH 6.0)
[9] = Buffer 6 (10 mM Histidine, 300 mM sucrose, pH 6.0)

solubility by visual assessment and RP-HPLC [1]: maintains good solubility | 30° C. vs 4° C. Recovery 4 wk ([1]; Buffer P5 (pH 5.0)): 100% | 40° C. vs 4° C. Recovery 4 wk ([1]; Buffer P5 (pH 5.0)): 100% | 30° C. vs 4° C. Recovery 4 wk ([1]; Buffer P6 (pH 6.0)): 100% | 40° C. vs 4° C. Recovery 4 wk ([1]; Buffer P6 (pH 6.0)): 101% | 4° C. Total Peak Area 4 wk ([1]; pH 5): 4933 | 30° C. Total Peak Area 4 wk ([1]; pH 5): 4932 | 40° C. Total Peak Area 4 wk ([1]; pH 5): 4932 | 4° C. Total Peak Area 4 wk ([1]; pH 6): 4918 | 30° C. Total Peak Area 4 wk ([1]; pH 6): 4911 | 40° C. Total Peak Area 4 wk ([1]; pH 6): 4960 | 4° C. % Main Peak ([2]; Buffer P5 (pH 5.0)): 98.01% | 30° C. % Main Peak ([2]; Buffer P5 (pH 5.0)): 97.07% | 40° C. % Main Peak ([2]; Buffer P5 (pH 5.0)): 92.64% | % Main Peak Day 0 ([2]; Buffer P5 (pH 5.0)): 99.55% | 4° C. % Main Peak ([2]; Buffer P6 (pH 6.0)): 98.60% | 30° C. % Main Peak ([2]; Buffer P6 (pH 6.0)): 97.71% | 40° C. % Main Peak ([2]; Buffer P6 (pH 6.0)): 95.00% | % Main Peak Day 0 ([2]; Buffer P6 (pH 6.0)): 99.02% | main peak changes ([2]; pH 5 (Buffer P5), after 4 weeks at 30° vs. 4° C.): less than 1% | main peak changes ([2]; pH 5 (Buffer P5), after 4 weeks at 40° C. vs. 4° C.): less than 6% | main peak changes ([2]; pH 6 (Buffer P6), after 4 weeks at 30° vs. 4° C.): less than 1% | main peak changes ([2]; pH 6 (Buffer P6), after 4 weeks at 40° C. vs. 4° C.): less than 4% | fibrillation as measured by the Thioflavin T binding assay ([3]; pH 6, mechanical stress): did not demonstrate fibrillation | Thioflavin T fluorescence t = 0 h [3, 4]: 74.6 fluorescence units | Thioflavin T fluorescence t = 40 h [3, 4]: 76.9 fluorescence units | Thioflavin T fluorescence t = 120 h [3, 4]: 89.2 fluorescence units | Thioflavin T fluorescence t = 0 h [3, 5]: 130.1 fluorescence units | Thioflavin T fluorescence t = 120 h [3, 5]: 137.0 fluorescence units | Thioflavin T fluorescence t = 40 h ([3]; Buffer 2 (10 mM Histidine, NaCl, pH 6.0)): 137.3 fluorescence units | Thioflavin T fluorescence t = 0 h [3, 6]: 68.1 fluorescence units | Thioflavin T fluorescence t = 40 h [3, 6]: 71.4 fluorescence units | Thioflavin T fluorescence t = 120 h [3, 6]: 72.4 fluorescence units | Thioflavin T fluorescence t = 0 h [3, 7]: 51.9 fluorescence units | Thioflavin T fluorescence t = 40 h [3, 7]: 56.2 fluorescence units | Thioflavin T fluorescence t = 120 h [3, 7]: 57.4 fluorescence units | Thioflavin T fluorescence t = 0 h [3, 8]: 113.9 fluorescence units | Thioflavin T fluorescence t = 40 h [3, 8]: 120.0 fluorescence units | Thioflavin T fluorescence t = 120 h [3, 8]: 123.2 fluorescence units | Thioflavin T fluorescence t = 0 h [3, 9]: 78.0 fluorescence units | Thioflavin T fluorescence t = 40 h [3, 9]: 74.1 fluorescence units | Thioflavin T fluorescence t = 120 h [3, 9]: 88.9 fluorescence units
Structure (SMILES): CC(C)C[C@H](NC(=O)[C@H](Cc1c[nH]c2ccccc12)NC(=O)[C@H](CCC(=O)O)NC(=O)[C@@H](NC(=O)[C@H](Cc1ccccc1)NC(=O)[C@H](CCC(=O)O)NC(=O)[C@H](CCC(N)=O)NC(=O)[C@H](C)NC(=O)[C@H](CCCCN)NC(=O)[C@H](CCCCN)NC(=O)C(C)(C)NC(=O)[C@H](CC(=O)O)NC(=O)[C@H](CC(C)C)NC(=O)[C@H](Cc1ccc(O)cc1)NC(=O)[C@H](CCCCN)NC(=O)[C@H](CO)NC(=O)[C@H](Cc1ccc(O)cc1)NC(=O)[C@H](CC(=O)O)NC(=O)[C@H](CO)NC(=O)[C@H](CC(C)C)NC(=O)[C@H](Cc1ccccc1)NC(=O)[C@@H](NC(=O)CNC(=O)[C@H](CCC(N)=O)NC(=O)[C@H](C)NC(=O)[C@@H](N)Cc1c[nH]cn1)[C@@H](C)O)C(C)C)C(=O)N[C@@H](CC(C)C)C(=O)N[C@@H](CCCCN)C(=O)N[C@H](C(=O)NCC(=O)N1CCC[C@H]1C(=O)N[C@@H](CO)C(=O)N[C@@H](CO)C(=O)NCC(=O)N[C@@H](C)C(=O)N1CCC[C@H]1C(=O)N1CCC[C@H]1C(=O)N[C@@H](CCCCN)C(=O)N[C@@H](CO)C(=O)N[C@@H](CCCCN)C(N)=O)[C@@H](C)O [SEQ ID NO: 2] (H-HAQGTFLSDYSKYLD[Aib]KKAQEFVEWLLKTGPSSGAPPKSK-NH2)
Physical appearance ([1]; 1 mg/mL, Buffer P5 and P6, over 4 weeks): clear to colorless, with no opalescences and no particles | Blood glucose levels (C57/Bl6 male mice; 1 μg/kg subcutaneously, 0 minutes): 165.3 ± 16.7 mg/dL | Blood glucose levels (C57/Bl6 male mice; 1 μg/kg subcutaneously, 15 minutes): 212.0 ± 12.6 mg/dL | Blood glucose levels (C57/Bl6 male mice; 1 μg/kg subcutaneously, 30 minutes): 203.1 ± 13.1 mg/dL | Blood glucose levels (C57/Bl6 male mice; 1 μg/kg subcutaneously, 60 minutes): 169.9 ± 10.1 mg/dL | Blood glucose levels (C57/Bl6 male mice; 1 μg/kg subcutaneously, 120 minutes): 141.0 ± 4.2 mg/dL | Blood glucose levels (C57/Bl6 male mice; 3 μg/kg subcutaneously, 0 minutes): 148.0 ± 4.6 mg/dL | Blood glucose levels (C57/Bl6 male mice; 3 μg/kg subcutaneously, 15 minutes): 234.1 ± 9.8 mg/dL | Blood glucose levels (C57/Bl6 male mice; 3 μg/kg subcutaneously, 30 minutes): 242.1 ± 8.3 mg/dL | Blood glucose levels (C57/Bl6 male mice; 3 μg/kg subcutaneously, 60 minutes): 169.4 ± 7.3 mg/dL | Blood glucose levels (C57/Bl6 male mice; 3 μg/kg subcutaneously, 120 minutes): 148.2 ± 10.9 mg/dL | Blood glucose levels (C57/Bl6 male mice; 10 μg/kg subcutaneously, 0 minutes): 155.4 ± 10.1 mg/dL | Blood glucose levels (C57/Bl6 male mice; 10 μg/kg subcutaneously, 15 minutes): 270.0 ± 12.7 mg/dL | Blood glucose levels (C57/Bl6 male mice; 10 μg/kg subcutaneously, 30 minutes): 308.5 ± 2.6 mg/dL | Blood glucose levels (C57/Bl6 male mice; 10 μg/kg subcutaneously, 60 minutes): 212.4 ± 8.3 mg/dL | Blood glucose levels (C57/Bl6 male mice; 10 μg/kg subcutaneously, 120 minutes): 152.4 ± 1.5 mg/dL | ED50 (C57/Bl6 male mice; calculated on the 30 minute glucose measurements, 10 μg/kg taken as maximum, subcutaneous): 3.28 µg/kg | effect on blood glucose (C57/Bl6 male mice; subcutaneous, C57/Bl6 mice): able to increase blood glucose
